{"source": "patent US20230091810A1", "about": "“FIRST-IN-CLASS OF SHMT2 AND MTHFD2 INHIBITORS AS ANTITUMOR AGENTS” (Duquesne University of the Holy Spirit, priority 2017, published 2023)", "key": {"H460 cells": {"test_system": "H460 cells", "assay": "glycine/nucleoside protection of growth inhibition in H460 cells", "assay_type": "cell-based, human", "method": "We also tested the protective effects of AICA (320 µM) which is metabolized to AICAR (ZMP) (AICARFTase substrate), thus circumventing the GARFTase step in de novo purine biosynthesis (27) (see FIG. 1). […] Analogous results were obtained with HCT116 and MIA PaCa-2 tumor cells (see FIG. 14).\n(§1) For proliferation assays of the HCT116, H460, and MIA PaCa2 tumor cell lines, the cells were plated in 96-well plates in an identical manner to the CHO experiments, except that the maximal drug concentration was increased to 10 µM. Glycine/nucleoside protection experiments in CHO and tumor cell lines were performed in folate- and glycine-free RPMI 1640/10% dialyzed fetal bovine serum supplemented with 25 nM leucovorin without additions, or in the presence of adenosine (60 µM), thymidine (10 µM), glycine (130 µM) and/or 5-aminoimidazole-4-carboxamide (AICA) (320 µM). Growth of metabolite-treated cells was normalized to controls treated with metabolites and vehicle (i.e., DMSO) both singly and in combination. Treatments with all metabolites were performed in parallel on the same plate for a given drug."}, "SHMT2": {"target": "T1, SHMT2 (Homo sapiens, UniProt P34897)", "T1 sequence (P34897 30-504)": "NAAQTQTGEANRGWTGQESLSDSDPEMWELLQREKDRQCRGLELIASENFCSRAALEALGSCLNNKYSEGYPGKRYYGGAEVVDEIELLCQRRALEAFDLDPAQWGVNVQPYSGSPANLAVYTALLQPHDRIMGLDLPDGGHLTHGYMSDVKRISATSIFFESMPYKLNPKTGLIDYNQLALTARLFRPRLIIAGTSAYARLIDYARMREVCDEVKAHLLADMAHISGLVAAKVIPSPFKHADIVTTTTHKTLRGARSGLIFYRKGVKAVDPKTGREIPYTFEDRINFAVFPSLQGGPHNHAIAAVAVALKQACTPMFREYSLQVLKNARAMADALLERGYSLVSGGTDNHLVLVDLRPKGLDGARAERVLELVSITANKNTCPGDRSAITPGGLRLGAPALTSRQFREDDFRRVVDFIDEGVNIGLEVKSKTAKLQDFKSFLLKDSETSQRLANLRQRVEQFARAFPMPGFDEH", "assay": "in vitro inhibition of purified SHMT2, coupled SHMT2-MTHFD2 assay with NADH readout", "conditions": "purified N-terminally His-tagged enzyme; compounds as monoglutamates; * designates one experiment"}, "PC43-10 (RFC) (CHO)": {"test_system": "PC43-10 (RFC) (CHO)", "assay": "proliferation assay, PC43-10 CHO cells expressing RFC only", "assay_type": "cell-based, Chinese hamster", "conditions": "folate-/glycine-free RPMI1640 with 25 nM leucovorin; 96 h; drug 0-1000 nM; read-out: IC50s (SE) PC43-10 (RFC) (CHO)", "method": "(§2) Proliferation assays were performed with engineered Chinese hamster ovary (CHO) cell lines R2 (transporter-null), PC43-10 (expresses RFC only), RT16 (FRα only), and R2/PCFT4 (PCFT only) cultured in folate-/glycine-free RPMI1640 supplemented with 25 nM leucovorin. Additional results are shown for HCT116 (colon tumor cells (CTC)), IGROV1 (epithelial ovarian cancer (EOC) cells), H460 (non-small cell lung cancer (NSCLC) cells), MIAPaCa-2 (pancreatic cancer (PaC) cells), and HPAC (PaC).\n(§3) Cell culture and proliferation/protection assays. The HCT116 cell lines including the serine hydroxymethyltransferase (SHMT) 1, SHMT2, and methylene THF dehydrogenase 2 (MTHFD2) knockout (KO) cells were previously described (47,53). The H460 cell line was obtained from the American Type Culture Collection (Manassas, VA), whereas the MIA PaCa-2 cells were provided by Dr. Yubin Ge (Karmanos Cancer Institute). Cell lines were verified by STR analysis by Genetica DNA Laboratories (Burlington, NC). MTXRIIOua^R2-4 (i.e. R2) Chinese hamster ovary (CHO) cells were generously provided by Dr. Wayne Flintoff (University of Western Ontario) (54). From this parental R2 cell line, human RFC and PCFT were individually transfected to generate the isogenic CHO cell lines designated PC43-10 (RFC) and R2/PCFT4 (PCFT) (55-57). Human tumor cell lines were cultured in folate-free RPMI supplemented with 10% dialyzed fetal bovine serum (Sigma-Aldrich), 1% penicillin/streptomycin solution, 2 mM L-glutamine, and 25 nM leucovorin in a humidified atmosphere at 37° C. in the presence of 5% CO2 and 95% air. The CHO cell lines were cultured in alpha-minimal essential medium (alpha-MEM) supplemented with 10% bovine calf serum, 1% penicillin/streptomycin solution, and 2 mM L-glutamine. Additionally, the transfected CHO cell lines (i.e. R2/PCFT4 and PC43-10) were maintained under continuous selection with 1 mg/ml of G418.\nFor proliferation assays with the CHO cell lines, the cells were treated with drugs (0-1 µM) in a 96-well plate (2000 cells/well) in glycine-free, nucleoside-free folate-free RPMI supplemented with 10% dialyzed fetal bovine serum, 1% penicillin/streptomycin, 2 mM L-glutamine, and 25 nM leucovorin (final volume 200 µL) over a 96 h incubation period at 37° C. with 5% CO2. […] To quantify viable cells, the media was removed and plates were washed once with 100 µL Dulbecco’s Phosphate-Buffered Saline (PBS), after which 100 µL PBS and 20 µL Cell Titer-blue (Promega) were added. Relative cell numbers were proportional to the fluorescence measured with a fluorescence plate reader (590 nm emission, 560 nm excitation). Background fluorescence (cell-free wells treated with Cell Titer-blue) was subtracted and these corrected values were normalized to results for cells treated in an identical manner without drugs."}, "RT16 (FR alpha) (CHO)": {"test_system": "RT16 (FR alpha) (CHO)", "assay": "proliferation assay, RT16 CHO cells expressing FR alpha only", "assay_type": "cell-based, Chinese hamster", "conditions": "folate-/glycine-free RPMI1640 with 25 nM leucovorin; 96 h; read-out: IC50s (SE) RT16 (FR alpha) (CHO)", "method": "as §2\nFor proliferation assays with the CHO cell lines, the cells were treated with drugs (0-1 µM) in a 96-well plate (2000 cells/well) in glycine-free, nucleoside-free folate-free RPMI supplemented with 10% dialyzed fetal bovine serum, 1% penicillin/streptomycin, 2 mM L-glutamine, and 25 nM leucovorin (final volume 200 µL) over a 96 h incubation period at 37° C. with 5% CO2. The drugs were dissolved in DMSO; an equivalent amount of DMSO was added to the control (no addition) samples. To quantify viable cells, the media was removed and plates were washed once with 100 µL Dulbecco’s Phosphate-Buffered Saline (PBS), after which 100 µL PBS and 20 µL Cell Titer-blue (Promega) were added. Relative cell numbers were proportional to the fluorescence measured with a fluorescence plate reader (590 nm emission, 560 nm excitation). Background fluorescence (cell-free wells treated with Cell Titer-blue) was subtracted and these corrected values were normalized to results for cells treated in an identical manner without drugs."}, "IGROV1 (EOC)": {"test_system": "IGROV1 (EOC)", "assay": "proliferation assay, IGROV1 epithelial ovarian cancer cells", "assay_type": "cell-based, human", "conditions": "folate-/glycine-free RPMI1640 with 25 nM leucovorin; read-out: IC50s (SE) IGROV1 (EOC)", "method": "as §2, §1"}, "MIA PaCa-2 (PaC)": {"test_system": "MIA PaCa-2 (PaC)", "assay": "proliferation assay, MIA PaCa-2 pancreatic cancer cells", "assay_type": "cell-based, human", "conditions": "folate-/glycine-free RPMI1640 with 25 nM leucovorin; 96 h; read-out: IC50s (SE) MIA PaCa-2 (PaC)", "method": "as §2, §3, §1"}, "HPAC (PaC)": {"test_system": "HPAC (PaC)", "assay": "proliferation assay, HPAC pancreatic cancer cells", "assay_type": "cell-based, human", "conditions": "folate-/glycine-free RPMI1640 with 25 nM leucovorin; read-out: IC50s (SE) HPAC (PaC)", "method": "as §2, §1"}, "[1]": {"test_system": "human MIA PaCa-2 pancreatic adenocarcinoma xenografts", "assay": "in vivo efficacy trial with MIA PaCa-2 pancreatic cancer xenografts", "design": "species or system SCID mice", "method": "Female ICR SCID mice (10 weeks old; 19 g average body weight) were implanted bilaterally with human MIA PaCa-2 tumors. […] The mice were weighed and tumors were measured with a caliper two-to-three times weekly; mice were sacrificed when the cumulative tumor burden reached 1500 mg. Tumor weights were estimated from two-dimensional measurements, where tumor mass (in mg) = (a x b^2)/2, and a and b are the tumor length and width in mm, respectively. The tumor masses from both tumors on each mouse were added together, and the total mass per mouse was used for calculations of anti-tumor activity. Quantitative end-points include: (i) tumor growth delay [T-C, where T is the median time in days required for the treatment group tumors to reach a predetermined size (e.g., 1000 mg), and C is the median time in days for the control group tumors to reach the same size; tumor-free survivors are excluded from these calculations]; and (ii) T/C (in percent) when treatment (T) and control (C) groups for the control groups reached 700 mg in size (exponential growth phase). The median value of each group was determined (including zeros). Mouse weights were monitored as a gauge of drug toxicity.\nFemale ICR SCID mice (10 weeks old; 19 g average body weight) were implanted bilaterally with human MIA PaCa-2 PaC tumors.\nIn vivo efficacy trial with MIA PaCa-2 pancreatic cancer xenografts. Methods for in vivo maintenance of MIA PaCa-2 tumor xenografts and drug efficacy evaluations are analogous to those previously described (58, 62-67). MIA PaCa-2 human pancreatic cancer cells (5 × 10^6 cells/flank) were bilaterally implanted subcutaneously with tumor fragments (30-60 mg) with a 12-gauge trocar in female […] SCID mice (NCI Animal Production Program). The mice were 10 weeks old on day 0 (tumor implant) with an average body weight of 19 g. For the efficacy trial, the mice were maintained on either a folate-deficient diet from Harlan-Teklad (TD.00434) starting 14 days before subcutaneous tumor implant to ensure serum folate levels would approximate those of humans. A separate cohort of mice was fed a folate-replete control diet from Lab Diet (5021). Mice were supplied with food and water ad libitum. Serum folate concentrations were monitored prior to tumor implant and post study by Lactobacillus casei bioassay (68). The mice in each group (folate-deficient and standard diet) were pooled before unselective distribution to the treatment and control groups. […] The drugs were dissolved in 5% ethanol (v/v), 1% Tween-80 (v/v), and 0.5% NaHCO3 and were administered intravenously (0.2 ml/injection). The mice were weighed and tumors were measured with a caliper two-to-three times weekly; mice were sacrificed when the cumulative tumor burden reached 1500 mg. Tumor weights were estimated from two-dimensional measurements, where tumor mass (in mg) = (a × b^2)/2, and a and b are the tumor length and width in mm, respectively. The tumor masses from both tumors on each mouse were added together, and the total mass per mouse was used for calculations of anti-tumor activity. Quantitative end-points include: (i) tumor growth delay [T-C, where T is the median time in days required for the treatment group tumors to reach a predetermined size (e.g., 1000 mg), and C is the median time in days for the control group tumors to reach the same size; tumor-free survivors are excluded from these calculations]; and (ii) T/C (in percent) when treatment (T) and control (C) groups for the control groups reached 700 mg in size (exponential growth phase). The median value of each group was determined (including zeros). Mouse weights were monitored as a gauge of drug toxicity."}, "[2]": {"conditions": "IV, AGF291 Q6dx3 start d3, total 23.5 mg/kg, Gemcitabine Q4dx4 start d3, total 480 mg/kg"}}}
{"smiles": "Nc1nc2[nH]c(CCCc3ccc(C(=O)N[C@@H](CCC(=O)O)C(=O)O)s3)cc2c(=O)[nH]1", "note": "[AGF94, reference compound]", "values": [{"measurement": "protection from growth inhibition by AICA", "setting": "H460 cells; AICA 320 µM", "result": "completely protective"}, {"measurement": "protection from growth inhibition by adenosine", "setting": "H460 cells; adenosine 60 µM, up to 10 µM drug", "result": "fully protective"}, {"measurement": "protection from growth inhibition by glycine", "setting": "H460 cells; glycine 130 µM", "result": "no effect"}, {"measurement": "Ki SHMT2", "setting": "SHMT2", "result": "no inhibition"}]}
{"smiles": "Nc1nc2ccn(CCCc3ccc(C(=O)N[C@@H](CCC(=O)O)C(=O)O)c(F)c3)c2c(=O)[nH]1", "note": "[AGF359]", "values": [{"measurement": "IC50", "setting": "PC43-10 (RFC) (CHO)", "result": 233, "unit": "nM"}, {"measurement": "IC50", "setting": "RT16 (FR alpha) (CHO)", "result": 525, "unit": "nM"}, {"measurement": "IC50", "setting": "IGROV1 (EOC)", "result": 229, "unit": "nM"}, {"measurement": "IC50", "setting": "MIA PaCa-2 (PaC)", "result": "> 1000", "unit": "nM"}, {"measurement": "IC50", "setting": "HPAC (PaC)", "result": 167, "unit": "nM"}]}
{"smiles": "Nc1ccn([C@@H]2O[C@H](CO)[C@@H](O)C2(F)F)c(=O)n1", "note": "[Gemcitabine, reference compound]", "values": [{"measurement": "Mean Body Weight Loss (g/mouse)", "setting": "[1]; [2]", "result": -2.4, "unit": "g/mouse"}, {"measurement": "Percent Body Weight Loss", "setting": "[1]; [2]", "result": -12.2, "unit": "%"}, {"measurement": "median tumor burden on day 14", "setting": "[1]; day 14, control cohort 1321 mg", "result": 255, "unit": "mg"}, {"measurement": "Median Tumor Burden in mg on d16 (range)", "setting": "[1]; day 16, IV, AGF291 total 23.5 mg/kg, Gemcitabine total 480 mg/kg", "result": "445 (150-527) mg"}, {"measurement": "Tumor Free on d52", "setting": "[1]; day 52, mice tumor free/total", "result": "0/5"}, {"measurement": "Tumor Growth Delay (T-C)", "setting": "[1]; median T-C to reach 1000 mg, AGF291 total 23.5 mg/kg, Gemcitabine total 480 mg/kg", "result": 7.5, "unit": "days"}, {"measurement": "Time to 1000 mg in days (range)", "setting": "[1]; median, IV, AGF291 total 23.5 mg/kg, Gemcitabine total 480 mg/kg", "result": "20 (19-21) days"}, {"measurement": "weight loss (median nadir)", "setting": "[1]; nadir on day 17 for AGF291, day 6 for GEM, completely reversible after cessation of therapy", "result": 12, "unit": "%"}, {"measurement": "T/C%", "setting": "[1]; treated/control median tumor burden, AGF291 7.75 mg/kg/inj Q6dx3, GEM 120 mg/kg/inj every 4 days, start day 3", "result": 26, "unit": "%"}]}
